Source: the kinase profiling compilation of Christmann-Franck et al. (2016)

Assays:
Assay in all cases: radiometric filter-binding kinase assay
[1] = molecular target: AURKA (human) (UniProt O14965)
[2] = molecular target: BRSK1 (human) (UniProt Q8TDC3)
[3] = molecular target: BRSK2 (human) (UniProt Q8IWQ3)
[4] = molecular target: CDK2 CCNA2 (human) (UniProt P20248+P24941)
[5] = molecular target: CLK2 (human) (UniProt P49760)
[6] = molecular target: CSK (human) (UniProt P41240)
[7] = molecular target: CSNK1D (human) (UniProt P48730)
[8] = molecular target: EPHA4 (human) (UniProt P54764)
[9] = molecular target: EPHB2 (human) (UniProt P29323)
[10] = molecular target: FGFR1 (human) (UniProt P11362)
[11] = molecular target: FLT1 (human) (UniProt P17948)
[12] = molecular target: INSR (human) (UniProt P06213)
[13] = molecular target: INSRR (human) (UniProt P14616)
[14] = molecular target: IRAK4 (human) (UniProt Q9NWZ3)
[15] = molecular target: JAK2 JH1 JH2 (human) (UniProt O60674)
[16] = molecular target: MAP2K2 (human) (UniProt P36507)
[17] = molecular target: MAP3K11 (human) (UniProt Q16584)
[18] = molecular target: MAP3K7 TAB1 (human) (UniProt Q15750+O43318)
[19] = molecular target: MAPK12 (human) (UniProt P53778)
[20] = molecular target: MAPK8 (human) (UniProt P45983)
[21] = molecular target: MAPKAPK3 (human) (UniProt Q16644)
[22] = molecular target: MARK4 (human) (UniProt Q96L34)
[23] = molecular target: MELK (human) (UniProt Q14680)
[24] = molecular target: MYLK (human) (UniProt Q15746)
[25] = system: PAK2 (human), Q13177 [T402E]
[26] = molecular target: PIM1 (human) (UniProt P11309)
[27] = molecular target: PIM3 (human) (UniProt Q86V86)
[28] = molecular target: PLK1 (human) (UniProt P53350)
[29] = molecular target: RIPK2 (human) (UniProt O43353)
[30] = molecular target: RPS6KA3 KD1 KD2 (human) (UniProt P51812)
[31] = system: RPS6KB1 (human), P23443 [T412E]
[32] = system: SGK1 (human), O00141 [S422D]
[33] = molecular target: SYK (human) (UniProt P43405)
[34] = molecular target: TBK1 (human) (UniProt Q9UHD2)
[35] = molecular target: TTK (human) (UniProt P33981)

Chain of BRSK2 (human) (Q8IWQ3 whole entry, looked up): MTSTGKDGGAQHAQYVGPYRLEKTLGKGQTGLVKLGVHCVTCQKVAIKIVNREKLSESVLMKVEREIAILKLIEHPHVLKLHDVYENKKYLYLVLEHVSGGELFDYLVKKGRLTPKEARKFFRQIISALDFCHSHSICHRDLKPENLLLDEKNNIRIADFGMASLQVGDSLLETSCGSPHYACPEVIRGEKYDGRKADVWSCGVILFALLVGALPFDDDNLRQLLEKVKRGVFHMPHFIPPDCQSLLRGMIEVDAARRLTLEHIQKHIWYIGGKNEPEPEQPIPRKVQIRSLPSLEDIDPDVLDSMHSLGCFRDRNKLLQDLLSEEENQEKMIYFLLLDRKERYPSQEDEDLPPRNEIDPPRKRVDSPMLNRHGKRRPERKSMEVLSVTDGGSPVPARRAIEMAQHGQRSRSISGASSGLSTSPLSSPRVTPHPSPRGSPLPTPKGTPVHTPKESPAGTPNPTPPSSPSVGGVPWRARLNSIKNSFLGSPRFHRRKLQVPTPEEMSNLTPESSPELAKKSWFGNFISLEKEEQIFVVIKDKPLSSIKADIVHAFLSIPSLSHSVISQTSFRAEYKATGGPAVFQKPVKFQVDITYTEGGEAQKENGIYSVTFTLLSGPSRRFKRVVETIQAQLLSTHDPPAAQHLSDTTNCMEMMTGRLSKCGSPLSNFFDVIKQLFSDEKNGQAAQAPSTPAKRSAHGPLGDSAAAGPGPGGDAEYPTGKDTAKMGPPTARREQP
Chain of MAP3K11 (human) (Q16584 whole entry, looked up): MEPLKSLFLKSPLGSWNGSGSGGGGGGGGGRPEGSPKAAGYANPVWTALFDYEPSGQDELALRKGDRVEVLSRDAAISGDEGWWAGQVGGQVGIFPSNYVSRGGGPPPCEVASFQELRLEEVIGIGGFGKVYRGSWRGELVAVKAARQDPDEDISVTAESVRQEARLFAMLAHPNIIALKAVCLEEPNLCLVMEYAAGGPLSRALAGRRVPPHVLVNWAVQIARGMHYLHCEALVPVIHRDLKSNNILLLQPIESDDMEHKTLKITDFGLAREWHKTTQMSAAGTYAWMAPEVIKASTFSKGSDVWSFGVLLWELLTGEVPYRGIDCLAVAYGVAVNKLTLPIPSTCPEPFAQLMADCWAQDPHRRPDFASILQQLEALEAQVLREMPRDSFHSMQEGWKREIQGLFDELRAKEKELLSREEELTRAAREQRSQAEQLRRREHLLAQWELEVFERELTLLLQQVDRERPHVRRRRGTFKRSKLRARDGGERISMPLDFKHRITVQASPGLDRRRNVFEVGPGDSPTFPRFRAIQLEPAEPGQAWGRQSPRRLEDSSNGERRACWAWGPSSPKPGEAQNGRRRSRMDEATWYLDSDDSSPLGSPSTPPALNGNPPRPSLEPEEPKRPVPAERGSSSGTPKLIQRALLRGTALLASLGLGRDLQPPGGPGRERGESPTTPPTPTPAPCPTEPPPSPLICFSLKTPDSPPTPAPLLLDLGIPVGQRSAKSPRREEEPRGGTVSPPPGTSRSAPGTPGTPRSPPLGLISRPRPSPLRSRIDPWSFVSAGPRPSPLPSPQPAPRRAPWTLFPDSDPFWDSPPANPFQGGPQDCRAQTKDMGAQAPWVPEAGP
Chain of MAP3K7 TAB1 (human) (O43318 whole entry, looked up): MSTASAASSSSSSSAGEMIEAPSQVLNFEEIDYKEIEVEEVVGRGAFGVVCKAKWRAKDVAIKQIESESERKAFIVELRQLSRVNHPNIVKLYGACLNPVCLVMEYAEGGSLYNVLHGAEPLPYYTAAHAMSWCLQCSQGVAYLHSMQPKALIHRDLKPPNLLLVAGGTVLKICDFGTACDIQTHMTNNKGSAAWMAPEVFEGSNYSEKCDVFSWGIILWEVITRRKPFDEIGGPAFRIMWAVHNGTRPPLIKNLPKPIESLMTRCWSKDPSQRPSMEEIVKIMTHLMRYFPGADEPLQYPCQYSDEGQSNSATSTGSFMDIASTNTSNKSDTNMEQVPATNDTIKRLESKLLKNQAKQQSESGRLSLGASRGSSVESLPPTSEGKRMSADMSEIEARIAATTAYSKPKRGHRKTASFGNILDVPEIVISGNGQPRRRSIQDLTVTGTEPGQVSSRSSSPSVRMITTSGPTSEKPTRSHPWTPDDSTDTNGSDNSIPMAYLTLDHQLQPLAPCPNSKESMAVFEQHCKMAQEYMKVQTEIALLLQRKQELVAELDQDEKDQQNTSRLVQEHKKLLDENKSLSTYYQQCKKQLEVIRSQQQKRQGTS
Chain of MAP3K7 TAB1 (human) (Q15750 whole entry, looked up): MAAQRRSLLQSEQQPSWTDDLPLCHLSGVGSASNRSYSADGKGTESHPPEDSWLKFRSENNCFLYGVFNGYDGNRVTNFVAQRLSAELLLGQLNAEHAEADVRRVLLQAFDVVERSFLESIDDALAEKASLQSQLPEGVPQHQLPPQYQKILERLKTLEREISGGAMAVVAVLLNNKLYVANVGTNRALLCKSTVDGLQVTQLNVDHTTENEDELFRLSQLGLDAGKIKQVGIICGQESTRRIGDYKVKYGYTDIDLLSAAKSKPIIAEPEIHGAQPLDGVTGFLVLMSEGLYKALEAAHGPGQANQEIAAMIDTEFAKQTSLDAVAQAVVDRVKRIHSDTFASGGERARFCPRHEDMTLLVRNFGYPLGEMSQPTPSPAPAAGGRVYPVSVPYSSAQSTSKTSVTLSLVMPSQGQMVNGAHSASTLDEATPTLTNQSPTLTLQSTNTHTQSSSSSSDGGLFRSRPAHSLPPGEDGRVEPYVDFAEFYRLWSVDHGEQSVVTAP
Chain of SGK1 (human), O00141 [S422D] (O00141 whole entry S422D, looked up): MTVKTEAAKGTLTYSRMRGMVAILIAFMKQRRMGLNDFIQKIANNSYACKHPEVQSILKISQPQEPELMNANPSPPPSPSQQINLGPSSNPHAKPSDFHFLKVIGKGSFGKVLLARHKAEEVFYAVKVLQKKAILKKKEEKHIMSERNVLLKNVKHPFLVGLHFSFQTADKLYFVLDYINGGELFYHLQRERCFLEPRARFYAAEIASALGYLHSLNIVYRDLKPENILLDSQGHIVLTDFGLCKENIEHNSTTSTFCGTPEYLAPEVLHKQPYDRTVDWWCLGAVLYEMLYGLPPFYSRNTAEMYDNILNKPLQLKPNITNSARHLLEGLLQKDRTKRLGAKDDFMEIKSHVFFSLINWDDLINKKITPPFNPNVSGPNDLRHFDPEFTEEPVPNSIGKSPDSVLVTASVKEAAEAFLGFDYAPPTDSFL
Chain of BRSK1 (human) (Q8TDC3 whole entry, looked up): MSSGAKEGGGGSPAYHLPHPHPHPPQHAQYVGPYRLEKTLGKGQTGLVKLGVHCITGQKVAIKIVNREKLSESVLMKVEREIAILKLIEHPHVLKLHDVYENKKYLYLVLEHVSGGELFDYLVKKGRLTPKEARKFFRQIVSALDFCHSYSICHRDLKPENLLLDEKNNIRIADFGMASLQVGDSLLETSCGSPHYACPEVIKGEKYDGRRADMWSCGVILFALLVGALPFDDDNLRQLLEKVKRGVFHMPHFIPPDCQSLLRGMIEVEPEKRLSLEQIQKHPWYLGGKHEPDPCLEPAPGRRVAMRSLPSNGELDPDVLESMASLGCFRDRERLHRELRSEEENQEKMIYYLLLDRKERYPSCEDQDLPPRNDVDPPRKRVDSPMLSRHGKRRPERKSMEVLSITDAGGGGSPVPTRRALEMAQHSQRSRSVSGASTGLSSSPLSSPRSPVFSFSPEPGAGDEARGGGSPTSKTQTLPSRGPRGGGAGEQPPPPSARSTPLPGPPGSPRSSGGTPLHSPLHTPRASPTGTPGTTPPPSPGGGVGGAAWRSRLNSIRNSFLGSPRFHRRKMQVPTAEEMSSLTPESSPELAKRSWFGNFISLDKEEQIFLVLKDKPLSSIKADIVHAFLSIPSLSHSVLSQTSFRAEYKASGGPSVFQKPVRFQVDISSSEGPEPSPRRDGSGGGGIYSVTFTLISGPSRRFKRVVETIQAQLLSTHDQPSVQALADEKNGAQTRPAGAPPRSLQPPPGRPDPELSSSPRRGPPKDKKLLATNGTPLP
Chain of EPHA4 (human) (P54764 whole entry, looked up): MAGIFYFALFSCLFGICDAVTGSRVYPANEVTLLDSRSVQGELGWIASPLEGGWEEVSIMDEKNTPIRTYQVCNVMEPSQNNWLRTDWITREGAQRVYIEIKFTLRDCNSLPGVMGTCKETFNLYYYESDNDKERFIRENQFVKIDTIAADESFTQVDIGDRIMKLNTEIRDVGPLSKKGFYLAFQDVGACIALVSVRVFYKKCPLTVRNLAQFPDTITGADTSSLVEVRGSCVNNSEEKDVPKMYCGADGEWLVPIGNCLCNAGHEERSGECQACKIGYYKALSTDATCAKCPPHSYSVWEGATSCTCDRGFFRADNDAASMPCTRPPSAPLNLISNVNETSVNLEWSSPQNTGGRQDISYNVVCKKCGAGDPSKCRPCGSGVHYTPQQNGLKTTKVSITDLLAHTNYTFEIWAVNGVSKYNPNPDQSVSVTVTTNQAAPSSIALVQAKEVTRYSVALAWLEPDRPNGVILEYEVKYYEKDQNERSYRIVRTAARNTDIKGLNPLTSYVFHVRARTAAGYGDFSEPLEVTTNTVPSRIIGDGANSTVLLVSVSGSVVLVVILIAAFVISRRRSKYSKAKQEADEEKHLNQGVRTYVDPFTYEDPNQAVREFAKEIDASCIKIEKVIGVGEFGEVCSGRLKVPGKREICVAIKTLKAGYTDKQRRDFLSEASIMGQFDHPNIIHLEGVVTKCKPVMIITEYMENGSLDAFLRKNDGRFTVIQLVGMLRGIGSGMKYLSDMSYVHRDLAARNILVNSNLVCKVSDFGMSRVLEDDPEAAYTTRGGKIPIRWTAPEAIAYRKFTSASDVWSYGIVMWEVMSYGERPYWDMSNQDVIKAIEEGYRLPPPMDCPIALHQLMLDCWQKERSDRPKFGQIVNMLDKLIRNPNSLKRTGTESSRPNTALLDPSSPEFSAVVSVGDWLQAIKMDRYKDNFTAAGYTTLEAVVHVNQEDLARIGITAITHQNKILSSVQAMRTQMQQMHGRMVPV

## COc1ccc(N(C(=O)Nc2c(C)cccc2C)c2cc(Nc3ccc(N4CCN(C)CC4)cc3)ncn2)c(OC)c1
[1]; compound 0.01 µM
  residual activity: 98%
[1]; compound 0.1 µM
  residual activity: 91%
[1]; compound 1.0 µM
  residual activity: 70%
[2]; compound 0.01 µM
  residual activity: 103%
[2]; compound 0.1 µM
  residual activity: 99%
[2]; compound 1.0 µM
  residual activity: 86%
[3]; compound 0.1 µM
  residual activity: 97%
[3]; compound 1.0 µM
  residual activity: 88%
[4]; compound 0.01 µM
  residual activity: 120%
[4]; compound 0.1 µM
  residual activity: 121%
[4]; compound 1.0 µM
  residual activity: 106%
[5]; compound 0.01 µM
  residual activity: 97%
[5]; compound 0.1 µM
  residual activity: 100%
[5]; compound 1.0 µM
  residual activity: 108%
[6]; compound 0.01 µM
  residual activity: 119%
[6]; compound 0.1 µM
  residual activity: 101%
[6]; compound 1.0 µM
  residual activity: 38%
[7]; compound 0.01 µM
  residual activity: 89%
[7]; compound 0.1 µM
  residual activity: 85%
[7]; compound 1.0 µM
  residual activity: 79%
[8]; compound 0.01 µM
  residual activity: 71%
[8]; compound 0.1 µM
  residual activity: 12%
[8]; compound 1.0 µM
  residual activity: 6%
[9]; compound 0.01 µM
  residual activity: 109%
[9]; compound 0.1 µM
  residual activity: 43%
[9]; compound 1.0 µM
  residual activity: 1%
[10]; compound 0.01 µM
  residual activity: 102%
[10]; compound 0.1 µM
  residual activity: 34%
[10]; compound 1.0 µM
  residual activity: 2%
[11]; compound 0.01 µM
  residual activity: 95%
[11]; compound 0.1 µM
  residual activity: 64%
[11]; compound 1.0 µM
  residual activity: 15%
[12]; compound 0.01 µM
  residual activity: 115%
[12]; compound 0.1 µM
  residual activity: 106%
[12]; compound 1.0 µM
  residual activity: 106%
[13]; compound 0.01 µM
  residual activity: 113%
[13]; compound 0.1 µM
  residual activity: 112%
[13]; compound 1.0 µM
  residual activity: 107%
[14]; compound 0.01 µM
  residual activity: 90%
[14]; compound 0.1 µM
  residual activity: 97%
[14]; compound 1.0 µM
  residual activity: 90%
[15]; compound 0.01 µM
  residual activity: 99%
[15]; compound 0.1 µM
  residual activity: 88%
[15]; compound 1.0 µM
  residual activity: 89%
[16]; compound 0.01 µM
  residual activity: 101%
[16]; compound 0.1 µM
  residual activity: 96%
[16]; compound 1.0 µM
  residual activity: 85%
[17]; compound 0.01 µM
  residual activity: 105%
[17]; compound 0.1 µM
  residual activity: 100%
[17]; compound 1.0 µM
  residual activity: 70%
[18]; compound 0.1 µM
  residual activity: 110%
[18]; compound 1.0 µM
  residual activity: 84%
[19]; compound 0.01 µM
  residual activity: 110%
[19]; compound 0.1 µM
  residual activity: 112%
[19]; compound 1.0 µM
  residual activity: 105%
[20]; compound 0.01 µM
  residual activity: 94%
[20]; compound 0.1 µM
  residual activity: 107%
[20]; compound 1.0 µM
  residual activity: 86%
[21]; compound 0.01 µM
  residual activity: 96%
[21]; compound 0.1 µM
  residual activity: 90%
[21]; compound 1.0 µM
  residual activity: 75%
[22]; compound 0.01 µM
  residual activity: 120%
[22]; compound 0.1 µM
  residual activity: 101%
[22]; compound 1.0 µM
  residual activity: 67%
[23]; compound 0.01 µM
  residual activity: 105%
[23]; compound 0.1 µM
  residual activity: 93%
[23]; compound 1.0 µM
  residual activity: 71%
[24]; compound 0.01 µM
  residual activity: 99%
[24]; compound 0.1 µM
  residual activity: 89%
[24]; compound 1.0 µM
  residual activity: 91%
[25]; compound 0.01 µM
  residual activity: 87%
[25]; compound 0.1 µM
  residual activity: 59%
[25]; compound 1.0 µM
  residual activity: 18%
[26]; compound 0.01 µM
  residual activity: 107%
[26]; compound 0.1 µM
  residual activity: 113%
[26]; compound 1.0 µM
  residual activity: 111%
[27]; compound 0.01 µM
  residual activity: 103%
[27]; compound 0.1 µM
  residual activity: 110%
[27]; compound 1.0 µM
  residual activity: 103%
[28]; compound 0.01 µM
  residual activity: 98%
[28]; compound 0.1 µM
  residual activity: 102%
[28]; compound 1.0 µM
  residual activity: 97%
[29]; compound 0.01 µM
  residual activity: 77%
[29]; compound 0.1 µM
  residual activity: 37%
[29]; compound 1.0 µM
  residual activity: 8%
[30]; compound 0.01 µM
  residual activity: 100%
[30]; compound 0.1 µM
  residual activity: 92%
[30]; compound 1.0 µM
  residual activity: 54%
[31]; compound 0.01 µM
  residual activity: 88%
[31]; compound 0.1 µM
  residual activity: 99%
[31]; compound 1.0 µM
  residual activity: 93%
[32]; compound 0.01 µM
  residual activity: 94%
[32]; compound 1.0 µM
  residual activity: 93%
[33]; compound 0.01 µM
  residual activity: 112%
[33]; compound 0.1 µM
  residual activity: 104%
[33]; compound 1.0 µM
  residual activity: 100%
[34]; compound 0.01 µM
  residual activity: 101%
[34]; compound 0.1 µM
  residual activity: 91%
[34]; compound 1.0 µM
  residual activity: 91%
[35]; compound 0.01 µM
  residual activity: 100%
[35]; compound 0.1 µM
  residual activity: 92%
[35]; compound 1.0 µM
  residual activity: 75%

## O=S(=O)(c1ccc(F)c2nonc12)N1CCN(c2ncc(C(F)(F)F)cc2Cl)CC1
[1]; compound 10.0 µM
  residual activity: 99%
[2]; compound 10.0 µM
  residual activity: 109%
[3]; compound 10.0 µM
  residual activity: 108%
[4]; compound 10.0 µM
  residual activity: 88%
[5]; compound 10.0 µM
  residual activity: 95%
[6]; compound 10.0 µM
  residual activity: 90%
[7]; compound 10.0 µM
  residual activity: 79%
[8]; compound 10.0 µM
  residual activity: 90%
[9]; compound 10.0 µM
  residual activity: 102%
[10]; compound 10.0 µM
  residual activity: 106%
[11]; compound 10.0 µM
  residual activity: 78%
[12]; compound 10.0 µM
  residual activity: 93%
[13]; compound 10.0 µM
  residual activity: 102%
[14]; compound 10.0 µM
  residual activity: 66%
[15]; compound 10.0 µM
  residual activity: 97%
[16]; compound 10.0 µM
  residual activity: 99%
[17]; compound 10.0 µM
  residual activity: 89%
[18]; compound 10.0 µM
  residual activity: 98%
[19]; compound 10.0 µM
  residual activity: 72%
[20]; compound 10.0 µM
  residual activity: 88%
[21]; compound 10.0 µM
  residual activity: 90%
[22]; compound 10.0 µM
  residual activity: 85%
[23]; compound 10.0 µM
  residual activity: 107%
[24]; compound 10.0 µM
  residual activity: 112%
[25]; compound 10.0 µM
  residual activity: 98%
[26]; compound 10.0 µM
  residual activity: 88%
[27]; compound 10.0 µM
  residual activity: 116%
[28]; compound 10.0 µM
  residual activity: 99%
[29]; compound 10.0 µM
  residual activity: 109%
[30]; compound 10.0 µM
  residual activity: 86%
[31]; compound 10.0 µM
  residual activity: 95%
[32]; compound 10.0 µM
  residual activity: 70%
[33]; compound 10.0 µM
  residual activity: 94%
[34]; compound 10.0 µM
  residual activity: 85%
[35]; compound 10.0 µM
  residual activity: 80%
